Measurements published in ChEMBL document CHEMBL5291721, “A preclinical secondary pharmacology resource illuminates target-adverse drug reaction associations of marketed drugs” (Nat Commun, 2023).

Tests used:
Adenosine receptor A1 = biological target: T1, Adenosine receptor A1 (Homo sapiens, UniProt P30542)
T1 sequence (P30542 whole entry): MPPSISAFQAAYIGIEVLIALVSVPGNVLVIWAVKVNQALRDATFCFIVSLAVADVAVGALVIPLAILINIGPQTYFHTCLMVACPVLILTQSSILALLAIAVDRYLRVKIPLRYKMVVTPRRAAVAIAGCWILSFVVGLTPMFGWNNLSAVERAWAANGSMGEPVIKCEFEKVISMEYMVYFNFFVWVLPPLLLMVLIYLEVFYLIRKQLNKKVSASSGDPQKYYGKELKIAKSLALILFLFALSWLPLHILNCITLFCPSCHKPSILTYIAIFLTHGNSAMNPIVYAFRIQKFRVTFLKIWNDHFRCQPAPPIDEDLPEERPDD

Adenosine receptor A3 = biological target: T2, Adenosine receptor A3 (Homo sapiens, UniProt P0DMS8)
T2 sequence (P0DMS8 whole entry): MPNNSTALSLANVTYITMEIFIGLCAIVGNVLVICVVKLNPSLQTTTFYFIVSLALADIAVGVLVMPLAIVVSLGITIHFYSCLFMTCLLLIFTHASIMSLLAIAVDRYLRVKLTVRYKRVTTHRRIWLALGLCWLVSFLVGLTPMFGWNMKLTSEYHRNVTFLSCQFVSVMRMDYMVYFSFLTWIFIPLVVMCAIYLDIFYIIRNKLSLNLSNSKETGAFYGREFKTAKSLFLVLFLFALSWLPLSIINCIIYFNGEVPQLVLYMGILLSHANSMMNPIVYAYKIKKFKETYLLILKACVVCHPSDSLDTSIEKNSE

[1] = biological target: T3, Alpha-2A adrenergic receptor (Homo sapiens, UniProt P08913); assay type: functional, cell-based
T3 sequence (P08913 whole entry): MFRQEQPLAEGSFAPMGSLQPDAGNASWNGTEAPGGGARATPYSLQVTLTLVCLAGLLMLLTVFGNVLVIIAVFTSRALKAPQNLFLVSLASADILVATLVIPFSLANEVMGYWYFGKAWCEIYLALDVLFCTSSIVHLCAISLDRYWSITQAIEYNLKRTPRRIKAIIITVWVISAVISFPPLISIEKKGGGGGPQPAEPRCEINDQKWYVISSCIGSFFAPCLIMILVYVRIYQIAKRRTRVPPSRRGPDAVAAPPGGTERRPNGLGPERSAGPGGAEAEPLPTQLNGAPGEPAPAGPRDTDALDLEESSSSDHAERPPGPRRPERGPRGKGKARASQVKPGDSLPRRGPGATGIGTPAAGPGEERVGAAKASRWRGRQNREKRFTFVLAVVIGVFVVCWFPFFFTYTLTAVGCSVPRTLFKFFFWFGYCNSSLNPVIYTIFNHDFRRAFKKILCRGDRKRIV

[2] = biological target: Beta-2 adrenergic receptor (Homo sapiens, UniProt P07550); assay type: functional, cell-based
B2 bradykinin receptor = biological target: T4, B2 bradykinin receptor (Homo sapiens, UniProt P30411)
T4 sequence (P30411 whole entry): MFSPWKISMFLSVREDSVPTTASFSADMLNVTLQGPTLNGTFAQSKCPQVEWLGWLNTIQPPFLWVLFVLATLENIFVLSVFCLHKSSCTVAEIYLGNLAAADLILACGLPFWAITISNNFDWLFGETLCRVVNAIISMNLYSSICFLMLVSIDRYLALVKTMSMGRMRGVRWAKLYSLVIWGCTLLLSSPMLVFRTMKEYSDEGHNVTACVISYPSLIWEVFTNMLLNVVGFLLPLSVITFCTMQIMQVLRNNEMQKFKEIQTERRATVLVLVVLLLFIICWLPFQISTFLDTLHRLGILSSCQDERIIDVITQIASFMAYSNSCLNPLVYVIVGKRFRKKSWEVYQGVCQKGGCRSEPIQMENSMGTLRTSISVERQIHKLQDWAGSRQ

[3] = biological target: Growth hormone secretagogue receptor type 1 (Homo sapiens, UniProt Q92847)
Histamine H2 receptor = Histamine H2 receptor (Homo sapiens, UniProt P25021); assay type: functional, cell-based
[4] = biological target: T5, 5-hydroxytryptamine receptor 1A (Homo sapiens, UniProt P08908); assay type: functional, cell-based
T5 sequence (P08908 whole entry): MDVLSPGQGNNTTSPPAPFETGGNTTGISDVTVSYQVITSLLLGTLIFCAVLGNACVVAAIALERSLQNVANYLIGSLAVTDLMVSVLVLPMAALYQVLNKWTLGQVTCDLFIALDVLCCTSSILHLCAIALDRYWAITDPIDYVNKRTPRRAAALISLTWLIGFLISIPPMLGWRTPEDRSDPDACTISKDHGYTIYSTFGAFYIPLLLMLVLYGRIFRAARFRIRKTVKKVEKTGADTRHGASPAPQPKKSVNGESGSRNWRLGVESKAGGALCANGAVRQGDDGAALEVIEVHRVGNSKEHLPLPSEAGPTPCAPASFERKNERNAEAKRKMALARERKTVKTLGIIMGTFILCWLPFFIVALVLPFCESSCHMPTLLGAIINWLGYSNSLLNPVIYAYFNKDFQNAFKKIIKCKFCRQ

[5] = biological target: T6, Prostaglandin G/H synthase 1 (Rattus norvegicus, UniProt Q63921); assay type: functional
T6 sequence (Q63921 whole entry): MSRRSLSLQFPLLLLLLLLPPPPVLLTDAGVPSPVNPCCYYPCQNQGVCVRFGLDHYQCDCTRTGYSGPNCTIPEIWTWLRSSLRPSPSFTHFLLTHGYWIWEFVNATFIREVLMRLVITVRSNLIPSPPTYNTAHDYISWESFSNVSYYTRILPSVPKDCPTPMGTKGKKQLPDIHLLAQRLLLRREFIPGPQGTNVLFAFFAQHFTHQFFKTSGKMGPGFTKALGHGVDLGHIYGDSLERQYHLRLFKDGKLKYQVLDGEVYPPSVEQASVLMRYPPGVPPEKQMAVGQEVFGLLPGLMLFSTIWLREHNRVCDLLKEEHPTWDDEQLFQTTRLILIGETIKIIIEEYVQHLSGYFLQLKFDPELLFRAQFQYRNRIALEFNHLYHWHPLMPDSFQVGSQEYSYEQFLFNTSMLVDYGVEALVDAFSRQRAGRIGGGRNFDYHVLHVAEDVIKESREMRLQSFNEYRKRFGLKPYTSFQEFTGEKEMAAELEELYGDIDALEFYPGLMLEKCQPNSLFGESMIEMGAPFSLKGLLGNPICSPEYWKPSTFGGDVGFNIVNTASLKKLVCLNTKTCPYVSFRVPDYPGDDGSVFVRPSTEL

[6] = biological target: cGMP-inhibited 3',5'-cyclic phosphodiesterase 3A (Homo sapiens, UniProt Q14432); assay type: functional
Cannabinoid receptor 1 = Cannabinoid receptor 1 (Homo sapiens, UniProt P21554)
Melanocortin receptor 4 = Melanocortin receptor 4 (Homo sapiens, UniProt P32245)
Also: assay procedure not described here.

cGMP-inhibited 3',5'-cyclic phosphodiesterase 3A, sequence (Q14432 whole entry): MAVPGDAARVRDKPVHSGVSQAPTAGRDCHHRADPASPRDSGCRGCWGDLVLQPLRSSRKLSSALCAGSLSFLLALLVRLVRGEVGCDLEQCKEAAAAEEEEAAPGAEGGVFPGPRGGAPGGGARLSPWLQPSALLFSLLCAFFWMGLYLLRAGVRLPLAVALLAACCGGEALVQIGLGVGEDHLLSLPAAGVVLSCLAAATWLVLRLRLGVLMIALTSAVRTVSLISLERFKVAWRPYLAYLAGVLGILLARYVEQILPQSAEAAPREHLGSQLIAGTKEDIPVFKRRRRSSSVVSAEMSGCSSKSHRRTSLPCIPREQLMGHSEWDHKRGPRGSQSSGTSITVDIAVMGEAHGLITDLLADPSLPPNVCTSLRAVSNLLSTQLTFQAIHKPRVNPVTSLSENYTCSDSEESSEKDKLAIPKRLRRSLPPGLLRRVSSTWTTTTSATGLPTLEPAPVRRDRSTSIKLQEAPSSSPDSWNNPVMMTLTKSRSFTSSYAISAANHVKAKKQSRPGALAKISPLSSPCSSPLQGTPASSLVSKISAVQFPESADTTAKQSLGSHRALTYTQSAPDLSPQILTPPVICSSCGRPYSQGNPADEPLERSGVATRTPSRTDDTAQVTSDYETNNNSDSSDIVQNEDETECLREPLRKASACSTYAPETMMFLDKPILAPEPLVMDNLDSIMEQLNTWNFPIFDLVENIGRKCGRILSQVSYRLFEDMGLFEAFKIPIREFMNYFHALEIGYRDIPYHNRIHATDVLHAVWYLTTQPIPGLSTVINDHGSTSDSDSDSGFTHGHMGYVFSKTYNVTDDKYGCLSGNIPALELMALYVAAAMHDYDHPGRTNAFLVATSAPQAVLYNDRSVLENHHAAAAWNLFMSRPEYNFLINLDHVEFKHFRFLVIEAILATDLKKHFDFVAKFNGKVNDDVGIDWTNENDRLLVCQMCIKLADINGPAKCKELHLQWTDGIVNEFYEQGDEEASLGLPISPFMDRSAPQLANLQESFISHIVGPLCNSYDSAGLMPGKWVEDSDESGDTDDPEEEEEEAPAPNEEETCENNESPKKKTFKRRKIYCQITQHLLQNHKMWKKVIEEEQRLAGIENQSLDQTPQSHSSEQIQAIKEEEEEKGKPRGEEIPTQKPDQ
Beta-2 adrenergic receptor, sequence (P07550 whole entry): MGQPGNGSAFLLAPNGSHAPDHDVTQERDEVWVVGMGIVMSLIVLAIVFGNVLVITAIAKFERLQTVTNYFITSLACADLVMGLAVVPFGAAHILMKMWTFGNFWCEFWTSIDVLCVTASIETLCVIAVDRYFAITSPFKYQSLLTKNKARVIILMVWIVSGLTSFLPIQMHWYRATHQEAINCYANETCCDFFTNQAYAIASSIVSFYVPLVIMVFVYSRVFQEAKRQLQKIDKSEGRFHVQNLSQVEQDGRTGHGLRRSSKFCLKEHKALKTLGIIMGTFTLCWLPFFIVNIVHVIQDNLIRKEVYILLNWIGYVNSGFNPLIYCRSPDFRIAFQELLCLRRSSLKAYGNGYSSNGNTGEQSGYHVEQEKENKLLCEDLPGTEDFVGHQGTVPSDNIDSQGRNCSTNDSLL
Growth hormone secretagogue receptor type 1, sequence (Q92847 whole entry): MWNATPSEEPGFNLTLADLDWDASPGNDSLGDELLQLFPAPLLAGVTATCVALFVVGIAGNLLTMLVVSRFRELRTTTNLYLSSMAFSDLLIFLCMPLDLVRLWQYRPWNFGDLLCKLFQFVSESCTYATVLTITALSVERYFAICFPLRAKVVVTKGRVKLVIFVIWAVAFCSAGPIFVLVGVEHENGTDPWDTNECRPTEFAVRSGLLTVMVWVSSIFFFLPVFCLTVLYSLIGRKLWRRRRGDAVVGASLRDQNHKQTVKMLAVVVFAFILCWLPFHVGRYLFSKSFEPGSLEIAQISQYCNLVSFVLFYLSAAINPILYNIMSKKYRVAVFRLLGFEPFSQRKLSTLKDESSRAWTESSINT
Cannabinoid receptor 1, sequence (P21554 whole entry): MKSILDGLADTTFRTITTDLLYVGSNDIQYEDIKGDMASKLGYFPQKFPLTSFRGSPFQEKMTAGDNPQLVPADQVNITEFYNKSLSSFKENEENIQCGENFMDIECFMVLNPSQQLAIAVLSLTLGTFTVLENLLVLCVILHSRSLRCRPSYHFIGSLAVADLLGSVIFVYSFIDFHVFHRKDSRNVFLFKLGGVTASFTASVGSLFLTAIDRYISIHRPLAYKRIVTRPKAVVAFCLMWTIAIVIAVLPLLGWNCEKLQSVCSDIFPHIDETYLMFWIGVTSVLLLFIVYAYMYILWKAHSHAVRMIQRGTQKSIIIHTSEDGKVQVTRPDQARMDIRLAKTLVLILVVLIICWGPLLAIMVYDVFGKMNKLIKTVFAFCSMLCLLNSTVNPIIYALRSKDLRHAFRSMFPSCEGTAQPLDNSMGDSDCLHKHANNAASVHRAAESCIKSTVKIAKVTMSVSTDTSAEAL
Melanocortin receptor 4, sequence (P32245 whole entry): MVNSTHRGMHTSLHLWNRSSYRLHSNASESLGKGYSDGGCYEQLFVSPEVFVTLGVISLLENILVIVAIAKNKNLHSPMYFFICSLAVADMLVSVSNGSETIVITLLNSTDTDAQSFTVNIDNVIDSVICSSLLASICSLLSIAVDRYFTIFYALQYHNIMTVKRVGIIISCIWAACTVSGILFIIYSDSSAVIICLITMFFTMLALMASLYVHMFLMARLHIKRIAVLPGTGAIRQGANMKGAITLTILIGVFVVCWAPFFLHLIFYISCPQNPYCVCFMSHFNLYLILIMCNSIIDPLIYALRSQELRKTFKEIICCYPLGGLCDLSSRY
Histamine H2 receptor, sequence (P25021 whole entry): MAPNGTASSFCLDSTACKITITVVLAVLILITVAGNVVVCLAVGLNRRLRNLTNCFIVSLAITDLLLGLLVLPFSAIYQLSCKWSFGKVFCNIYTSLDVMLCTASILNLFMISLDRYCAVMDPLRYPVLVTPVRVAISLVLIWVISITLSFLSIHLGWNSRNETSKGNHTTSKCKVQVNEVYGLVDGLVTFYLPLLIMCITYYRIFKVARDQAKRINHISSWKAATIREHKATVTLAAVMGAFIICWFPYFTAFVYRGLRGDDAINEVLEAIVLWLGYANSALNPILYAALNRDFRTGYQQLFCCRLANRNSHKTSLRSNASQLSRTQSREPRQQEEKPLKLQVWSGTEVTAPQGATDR

| SMILES | AC50 (Adenosine receptor A1) [µM] | AC50 (Adenosine receptor A3) [µM] | AC50 [1] [µM] | AC50 [2] [µM] | AC50 (B2 bradykinin receptor) [µM] | AC50 [3] [µM] | AC50 (Histamine H2 receptor) [µM] | AC50 [4] [µM] | AC50 [5] [µM] | AC50 [6] [µM] | AC50 (Cannabinoid receptor 1) [µM] | AC50 (Melanocortin receptor 4) [µM] |
| --- | --- | --- | --- | --- | --- | --- | --- | --- | --- | --- | --- | --- |
| C=C1CC[C@@]2(O)[C@H]3Cc4ccc(O)c5c4[C@@]2(CCN3CC2CC2)[C@H]1O5 | > 30 | > 30 | > 30 | > 30 | > 30 | > 30 | > 30 | > 30 | > 30 | > 30 | – | – |
| CCC(C(=O)O)c1ccc(CC(C)C)cc1 (stereo unspecified) [BUTIBUFEN] | > 30 | > 30 | > 30 | > 30 | > 30 | > 30 | > 30 | > 30 | – | > 30 | – | – |
| O=C(CCCCC(=O)Nc1c(I)cc(I)c(C(=O)O)c1I)Nc1c(I)cc(I)c(C(=O)O)c1I [IODIPAMIDE] | > 10 | > 10 | > 10 | – | > 10 | > 10 | > 30 | > 10 | > 10 | > 30 | > 10 | > 10 |
| CC(C)[N+](C)(CCC(C(N)=O)(c1ccccc1)c1ccccc1)C(C)C [ISOPROPAMIDE] | > 10 | > 10 | > 10 | – | > 10 | > 10 | > 10 | > 10 | > 10 | > 30 | > 10 | > 10 |
| COC(=O)C1=C(C)NC(C)=C(C(=O)OC(C)C)C1c1cccc2nonc12 (stereo unspecified) [ISRADIPINE] | > 30 | 20.3 | > 10 | – | > 30 | > 30 | > 30 | > 10 | > 30 | 23 | > 10 | > 30 |
| CN1CC[C@]23CCCC[C@H]2[C@H]1Cc1ccc(O)cc13 [LEVORPHANOL] | > 10 | > 10 | 9 | – | > 10 | > 10 | > 30 | > 10 | > 10 | > 30 | > 10 | > 10 |
| CC1=CC(=O)c2ccccc2C1=O [MENADIONE] | > 30 | 13.7 | > 10 | – | > 10 | > 10 | > 30 | > 10 | > 10 | > 30 | > 10 | > 10 |
| COc1ccccc1OCC(O)COC(N)=O (stereo unspecified) [METHOCARBAMOL] | > 10 | > 10 | > 10 | – | > 10 | > 10 | > 10 | > 10 | > 10 | > 30 | > 10 | > 10 |
| COc1c(C)c2c(c(O)c1C/C=C(\C)CCC(=O)OCCN1CCOCC1)C(=O)OC2 [MYCOPHENOLATE MOFETIL] | > 30 | > 30 | > 30 | > 30 | > 30 | > 30 | > 30 | > 30 | – | 17 | – | – |
| CN1CCCN=C1COC(=O)C(O)(c1ccccc1)C1CCCCC1 (stereo unspecified) [OXYPHENCYCLIMINE] | > 10 | > 10 | > 10 | – | > 10 | > 10 | > 10 | > 10 | > 10 | > 30 | > 10 | > 10 |
| CN1CCC2=C(C1)C(c1ccccc1)c1ccccc12 (stereo unspecified) [PHENINDAMINE] | > 10 | > 10 | > 10 | – | > 10 | > 10 | > 10 | > 10 | 0.771 | > 30 | > 10 | > 10 |
| CN1C(=O)CC(c2ccccc2)C1=O (stereo unspecified) [PHENSUXIMIDE] | > 10 | > 10 | > 10 | – | > 10 | > 10 | > 10 | > 10 | > 10 | > 30 | > 10 | > 10 |
| C#CCN[C@@H]1CCc2ccccc21 [RASAGILINE] | > 30 | > 30 | > 30 | – | > 30 | > 30 | > 30 | > 30 | > 30 | > 30 | > 30 | > 30 |
| C#CCN(C)[C@H](C)Cc1ccccc1 [SELEGILINE] | > 10 | > 10 | > 10 | – | > 10 | > 10 | > 10 | > 10 | > 10 | > 30 | > 10 | > 10 |
| CN[C@@H]1[C@H](O)[C@H](NC)[C@H]2O[C@@]3(O)C(=O)C[C@@H](C)O[C@H]3O[C@@H]2[C@H]1O [SPECTINOMYCIN] | > 10 | > 10 | > 10 | – | > 10 | > 10 | > 10 | > 30 | > 10 | > 30 | > 10 | > 10 |
| CC(=O)NS(=O)(=O)c1ccc(N)cc1 [SULFACETAMIDE] | > 10 | > 10 | > 10 | – | > 10 | > 10 | > 10 | > 10 | > 10 | > 30 | > 10 | > 10 |
